# Test results reported in patent publication US9415047B2, “Use of benzo five-membered nitrogen heterocyclic piperazine or piperidine derivatives” (Liaoning Emmy Biological Pharmaceutical Co., Ltd., priority 2012, dated 2016).
# Where “and” joins values, the source holds several entries; their conditions need not be identical. Equal entries are not always repeated. Entries after “also recorded” stand apart in the source; their conditions may differ.
# What was measured:
# [1] = tested on: AD constricted rabbit aorta; assay: Relaxing effects on vascular smooth muscle constricted by adrenaline hydrochloride (AD) in vitro; conditions: Oryctolagus cuniculus; relaxation of rabbit aorta constricted by adrenaline (10^−5 mol/L); mean±SEM, n=5
# In short: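 Rabbit aortic strips in K-H solution precontracted with adrenaline hydrochloride (10^−5 mol/L) after a reproducible second contraction; compounds added cumulatively over ranges from 1×10^−10 up to 1×10^−2 mol/L depending on the compound series. Relaxation expressed as % of maximal relaxation versus −log concentration, mean±SEM, n=5.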
# [2] = tested on: high kalium concentration constricted rabbit aorta; assay: Relaxing effects on vascular smooth muscle constricted by high kalium concentration in vitro; conditions: Oryctolagus cuniculus, relaxation of rabbit aorta constricted by high kalium solution (K+ 60 mmol/L); mean±SEM, n=5
# In short: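 Rabbit aortic rings pre-challenged with adrenaline (10^−5 mol/L), washed and re-equilibrated 60 min in K-H solution, then constricted with high-K+ solution; compounds added cumulatively over 1×10^−10–1×10^−2 mol/L depending on series. Relaxation expressed as % of maximal relaxation vs −log concentration; mean±SEM, n=5.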
# α1 receptor [3] = assay: Antagonism of accumulative constriction of rabbit aorta by noradrenaline (α-receptor agonist)
# Procedure: Then samples were flushed with K-H solution repeatedly, K-H solution was changed for every 20 min, and the samples were balanced for 60 min. After baseline recovered to be stable, doxazosin (10^−7 mol/L) was added, and noradrenaline (NA) (10^−8-6×10^−5 mol/L) was added by using the same method 15 min later.
# NA was also added by using the same method 15 min later.
# Calcium Channel (Ca^2+) = assay: Antagonism of accumulative constriction of rabbit aorta by CaCl2; conditions: calcium free high kalium depolarization
# Procedure: (§4) Rabbits were hit to be dizzy, with thoracic cavity quickly cut open, descending aorta exposed, connective tissues and surrounding fatty tissues (for hydroxytryptamine receptor antagonism test, endothelia should be removed with smooth stainless steel rod) removed, the aorta was cut into 3-5 mm vascular rings which were penetrated together with a steel wire with one end fixed on ventilation hook, another end on pressure tonotransducer. The aorta rings were put into a bath tube with 20 ml of nutritional solution, and the tension changes were recorded by using the recorder. The temperature of bath tube was maintained at 37±0.5° C., and mixed gas (95% O2+5% CO2) was ventilated at a rate of I-2 bubbles/second. The initial load of the sample was 1.5 g, nutritional solution was changed for every 20 min. The sample was balanced for 2 hours, and the experiment would be started when baseline became stable.
# After sample tension became stable, calcium K-H solution was used to flush the sample for 3 times, and incubated with calcium free K-H solution for 40 min. Calcium free high kalium solution was added into the sample for depolarization for 20 min, then CaCl2 (10^−6-10^−2 mol/L) was added into bath tube till maximal response was achieved, and then waveform was recorded. Then K-H solution was used to flush the sample repeatedly, the K-H solution was changed for every 20 min, and the sample was balanced for 60 min. […]
# After sample tension became stable, calcium K-H solution was used to flush the sample for 3 times, and incubated with calcium free K-H solution for 40 min. Calcium free high kalium solution was added into the sample for depolarization for 20 min, then CaCl2 (10^−6-10^−2 mol/L) was added into bath tube till maximal response was achieved, and then waveform was recorded. […] Calcium free high kalium solution was added into the sample for depolarization for 20 min, then amlodipine (10^−7 mol/L) was added into bath tube, which was incubated for 15 min, then CaCl2 (10^−6-10^−2 mol/L) was added by using the same method till maximal response was achieved, and then waveform was recorded. […]
# [4] = Experiment on acute toxicity; conditions: both sexes, Kunming, mouse, in vivo, po; mice, gastric gavage
# Excerpt: (§1) Kunming mice (Experimental Animal Center, China Medical University) were used, half male and half female, 18-22 g, brief probability unit method was used to test the acute toxicity of the compound.
# (§2) Ten Kunming mice (Experimental Animal Center, China Medical University) were used, half male and half female, 18-22 g, brief probability unit method was used to test the acute toxicity of the compound.
# Kunming mice [5] = assay: Experiment on acute toxicity; conditions: mouse, in vivo
# Excerpt: as §1, §2
# Kunming mice [6] = assay: Marrow micronucleus test on mice; format: in vivo
# Procedure: Ten Kunming mice (Experimental Animal Center, China Medical University), half male and half female, were used. Compound II-2 was administered via gastric gavage at 120 mg/kg/day, and II-85 was administered to 74 mg/kg/day. The drug was administered for 4 days continuously. Marrow micronucleus test was performed on day 5.
# Mice in positive control group were administered cyclophosphane at 60 mg/kg/day. Mice in negative control group were administered normal saline at 0.1 ml/10 g/day. The drug was administered for 4 days continuously. Marrow micronucleus test was performed on day 5.
# The mice were killed by snapping neck, and then femur and sternum were excised, with blood and muscles removed, epiphysis cut off. Then marrow from sternum was squeezed to clean glassslide with bovine serum by using a pair of hemostatic forceps, or marrow on femur was flushed directly with bovine serum onto clean glassslide. Then the substance on glassslide were mixed well and smeared. Then the prepared and dried marrow smears were put into staining tank with methanol, fixed for 15 min, picked out to dry in the open air. After marrow smears were dried, it would be stained in freshly prepared Giemsa solution (1 volume of Giemsa stock solution and 9 volumes of pH 6.8 phosphate buffer) for 10 min, staining solution was flushed away with little stream. Then the smear was dried in the open air and observed under a microscope.
# SD rats = assay: Effects on blood pressure of SD rats anesthetized with urethane; format: in vivo; conditions: for diastolic blood pressure (DBP) / mean artery pressure (MAP) / systolic blood pressure (SBP): 4.0 mg/kg gastric gavage, n = 4
# Procedure: (§3) Four SD rats were anesthetized with urethane ([…]), after vital signs became stable, blood pressure was measured by common carotid intubation. After blood pressure became stable, compound II-2 was administered at 4.0 mg/kg via gastric gavage, blood pressure changes with time were observed and recorded.
# as §3, with “Five” for “Four”, “rats (provided by Experimental Animal Center, China Medical University)” for “rats”, “II-85” for “II-2”, “1.5” for “4.0”
# 5-HT2A receptor = 5-HT2A receptor (Oryctolagus cuniculus, UniProt G1SYA7); assay: Antagonism of accumulative constriction of rabbit aorta by 5-HT
# Procedure: as §4
# After sample tension became stable, a piece of waveform was recorded, 5-HT (10^−7-3×10^−4 mol/L) was added into the bath tube until maximal response, then waveform was recorded. […] 5-HT was also added by using the same method 20 min later. The maximal response was considered 100%, 5-HT constriction percentage was used as Y axis, negative logarithms of different concentrations of 5-HT were used as X axis to draw dose effective curve.
# After sample tension became stable, a piece of waveform was recorded, 5-HT (10^−8-10^−3 mol/L) was added into the bath tube until maximal response, then waveform was recorded. […] 5-HT was also added by using the same method 20 min later. The maximal response was considered 100%, 5-HT constriction percentage was used as Y axis, negative logarithms of different concentrations of 5-HT were used as X axis to draw dose effective curve (data were expressed in mean±SEM ( ? ), *P<0.05, **P<0.01, n=7).
# After sample tension became stable, a piece of waveform was recorded, 5-HT (10^−8-3×10^−4 mol/L) was added into the bath tube until maximal response, then waveform was recorded. […] 5-HT was also added by using the same method 20 min later. […]
# α1 receptor [7] = assay: Antagonism of accumulative constriction of rabbit aorta by phenylephrine (α-receptor agonist); conditions: agonist (R)-phenylephrine
# Procedure: PE was also added by using the same method 15 min later. […] The curve was shown in FIG. 21 after positive drug doxazosine mesylate (10^−7 mol/L) was added.
# Chain of 5-HT2A receptor (G1SYA7 1-469): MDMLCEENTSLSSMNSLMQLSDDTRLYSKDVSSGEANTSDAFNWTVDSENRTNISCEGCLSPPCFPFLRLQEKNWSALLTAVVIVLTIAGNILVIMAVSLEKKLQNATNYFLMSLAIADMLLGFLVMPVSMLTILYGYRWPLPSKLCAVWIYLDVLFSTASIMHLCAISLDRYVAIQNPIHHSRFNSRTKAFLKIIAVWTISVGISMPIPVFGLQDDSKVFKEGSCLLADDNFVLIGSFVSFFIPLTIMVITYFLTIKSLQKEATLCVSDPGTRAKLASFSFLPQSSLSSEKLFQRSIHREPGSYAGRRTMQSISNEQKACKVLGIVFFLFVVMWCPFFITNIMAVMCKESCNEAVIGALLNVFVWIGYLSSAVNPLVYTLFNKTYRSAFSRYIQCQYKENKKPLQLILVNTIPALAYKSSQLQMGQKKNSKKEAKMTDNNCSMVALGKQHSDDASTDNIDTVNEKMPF
smiles,measurement,setting,value
"FC(F)(F)c1cccc(N2CCN(CCCCn3cnc4ccccc43)CC2)c1 [II-2, 1-(4-(4-(3-trifluoromethylphenyl)piperazine-1-yl)butyl)-1H-benzimidazole]",EC50,[1],1860 nM
same,EC50,[2],4.57 µM
same,PA2 value to resist constriction of rabbit aorta by NA,α1 receptor [3],7.37±0.08
same,PA2 value to resist constriction of rabbit aorta by CaCl2,Calcium Channel (Ca^2+),5.61±0.04
same,LD50,[4],362 mg/kg
same,therapeutic index,Kunming mice [5],great therapeutic index
same,toxicity,Kunming mice [5],mild toxicity
same,marrow micronucleus test result,Kunming mice [6],negative
same,micronuclei cells in 1000 polychromatic erythrocytes,"Kunming mice [6]; dosed 4 days, test on day 5, II-2 120, II-85 74, cyclophosphane 60 mg/kg/day",2.0±0.333%
same,diastolic blood pressure (DBP),SD rats; 0 min post dosing,75.92 mmHg
same,mean artery pressure (MAP),SD rats; 0 min post dosing,91.50 mmHg
same,systolic blood pressure (SBP),SD rats; 0 min post dosing,122.66 mmHg
same,diastolic blood pressure (DBP),SD rats; 15 min post dosing,62.21 mmHg
same,mean artery pressure (MAP),SD rats; 15 min post dosing,73.40 mmHg
same,systolic blood pressure (SBP),SD rats; 15 min post dosing,95.77 mmHg
same,diastolic blood pressure (DBP),SD rats; 30 min post dosing,61.84 mmHg
same,mean artery pressure (MAP),SD rats; 30 min post dosing,74.52 mmHg
same,systolic blood pressure (SBP),SD rats; 30 min post dosing,99.88 mmHg
same,diastolic blood pressure (DBP),SD rats; 60 min post dosing,58.04 mmHg
same,mean artery pressure (MAP),SD rats; 60 min post dosing,72.77 mmHg
same,systolic blood pressure (SBP),SD rats; 60 min post dosing,102.22 mmHg
same,diastolic blood pressure (DBP),SD rats; 90 min post dosing,53.86 mmHg
same,mean artery pressure (MAP),SD rats; 90 min post dosing,68.81 mmHg
same,systolic blood pressure (SBP),SD rats; 90 min post dosing,98.71 mmHg
same,diastolic blood pressure (DBP),SD rats; 120 min post dosing,69.10 mmHg
same,mean artery pressure (MAP),SD rats; 120 min post dosing,83.12 mmHg
same,systolic blood pressure (SBP),SD rats; 120 min post dosing,111.16 mmHg
same,diastolic blood pressure (DBP),SD rats; 150 min post dosing,70.79 mmHg
same,mean artery pressure (MAP),SD rats; 150 min post dosing,84.47 mmHg
same,systolic blood pressure (SBP),SD rats; 150 min post dosing,111.82 mmHg
same,diastolic blood pressure (DBP),SD rats; 180 min post dosing,71.08 mmHg
same,mean artery pressure (MAP),SD rats; 180 min post dosing,84.83 mmHg
same,systolic blood pressure (SBP),SD rats; 180 min post dosing,112.34 mmHg
same,diastolic blood pressure (DBP),SD rats; 210 min post dosing,75.26 mmHg
same,mean artery pressure (MAP),SD rats; 210 min post dosing,88.54 mmHg
same,systolic blood pressure (SBP),SD rats; 210 min post dosing,115.12 mmHg
same,time until blood pressures recovered to those before drug dosing,"SD rats; anesthetized SD rats, gastric gavage",3.5 h
same,oral absorption,SD rats; in vivo bulk testing on rats,good oral absorption
same,hypotensive effects,"SD rats; rats, gastric gavage",good hypotensive effects; also recorded: obvious hypotensive effects
same,Kb,5-HT2A receptor,1950 nM
"COc1cc2nc(N3CCN(C(=O)C4COc5ccccc5O4)CC3)nc(N)c2cc1OC (stereo not drawn) [doxazosin, reference compound]",PA2 value to resist constriction of rabbit aorta by NA,α1 receptor [3],7.52±0.04 and 7.76±0.24
same,PA2 value to resist constriction of rabbit aorta by PE,α1 receptor [7],7.43±0.12
